# According to patent US20250145585A1, “HETEROCYCLIC INHIBITORS OF IGF-1R FOR TREATMENT OF DISEASE” (HORIZON THERAPEUTICS IRELAND DAC, priority 2023, published 2025):
# Target: T1, IGF-1R (Homo sapiens, UniProt P08069)
# T1 construct: expressed in transfected cells
# Test: Example B-2: IGF-1R Assay (PathHunter cell lines, EC80 agonist challenge, chemiluminescent detection)
# Type: cell-based
# Details: PathHunter cells, compound 60 minutes at 37° C., EC80 agonist 3 hours; read-out: IC50, Biological Activity against IGF-1R (Table B2)
# In short: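 Read-out is PathHunter chemiluminescence, developed for 1 h at room temperature after a 3 h room-temperature EC80 agonist challenge that followed 60 min compound pre-treatment at 37° C (1% vehicle). IC50 comes from % inhibition normalized to EC80 and vehicle controls.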
# T1 sequence (P08069 31-1367): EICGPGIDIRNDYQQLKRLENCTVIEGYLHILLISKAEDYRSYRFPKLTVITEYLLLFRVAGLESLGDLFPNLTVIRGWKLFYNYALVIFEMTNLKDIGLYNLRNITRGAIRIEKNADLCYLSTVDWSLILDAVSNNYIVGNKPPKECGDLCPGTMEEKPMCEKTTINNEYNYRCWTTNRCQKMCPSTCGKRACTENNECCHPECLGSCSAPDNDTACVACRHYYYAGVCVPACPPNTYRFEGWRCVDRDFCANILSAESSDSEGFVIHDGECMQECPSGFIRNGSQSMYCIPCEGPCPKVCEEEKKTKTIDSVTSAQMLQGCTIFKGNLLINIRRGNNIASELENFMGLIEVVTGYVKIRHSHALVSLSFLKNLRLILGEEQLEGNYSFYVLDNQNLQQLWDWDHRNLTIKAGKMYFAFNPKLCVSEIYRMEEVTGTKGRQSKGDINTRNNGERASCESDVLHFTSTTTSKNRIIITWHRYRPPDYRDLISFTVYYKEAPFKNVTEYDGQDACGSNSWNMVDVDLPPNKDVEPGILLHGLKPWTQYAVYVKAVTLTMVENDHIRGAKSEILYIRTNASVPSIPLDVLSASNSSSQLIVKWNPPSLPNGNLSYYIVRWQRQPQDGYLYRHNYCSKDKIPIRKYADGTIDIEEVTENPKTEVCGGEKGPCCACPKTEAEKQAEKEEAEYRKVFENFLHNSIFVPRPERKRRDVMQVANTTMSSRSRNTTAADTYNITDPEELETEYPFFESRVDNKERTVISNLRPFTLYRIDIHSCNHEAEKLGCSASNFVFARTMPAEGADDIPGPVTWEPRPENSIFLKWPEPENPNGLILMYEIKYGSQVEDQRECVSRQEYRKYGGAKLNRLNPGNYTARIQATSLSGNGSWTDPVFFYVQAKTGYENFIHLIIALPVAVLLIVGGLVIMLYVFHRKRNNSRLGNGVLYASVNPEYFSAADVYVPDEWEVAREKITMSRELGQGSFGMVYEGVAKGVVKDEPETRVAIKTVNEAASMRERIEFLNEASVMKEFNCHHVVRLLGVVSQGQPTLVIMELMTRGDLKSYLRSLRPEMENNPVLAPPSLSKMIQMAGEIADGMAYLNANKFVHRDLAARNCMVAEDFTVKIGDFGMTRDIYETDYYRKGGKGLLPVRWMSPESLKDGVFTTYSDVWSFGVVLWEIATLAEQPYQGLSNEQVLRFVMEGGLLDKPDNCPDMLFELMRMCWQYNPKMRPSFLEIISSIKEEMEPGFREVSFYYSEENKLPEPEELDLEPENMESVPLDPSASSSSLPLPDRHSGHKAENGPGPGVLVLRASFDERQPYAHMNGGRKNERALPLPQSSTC
row,SMILES,IC50 [nM]
1,"CC(C)OC[C@H](C)Nc1cc(CN2C(=O)N(c3ccc(C4(C(F)(F)F)CC4)cc3)C(=O)C2(C)C)ccn1 [Compound 158, (S)-1-((2-((1-isopropoxypropan-2-yl)amino)pyridin-4-yl)methyl)-5,5-dimethyl-3-(4-(1-(trifluoromethyl)cyclopropyl)phenyl) imidazolidine-2,4-dione]",500 to 2000
2,"CC1(C)C(=O)N(c2ccc(C3(C(F)(F)F)CC3)cc2)C(=O)N1Cc1ccnc(NC2CCc3cn[nH]c3C2)c1 (stereo not shown) [Compound 161, 5,5-dimethyl-1-((2-((4,5,6,7-tetrahydro-1H-indazol-6-yl)amino)pyridin-4-yl)methyl)-3-(4-(1-(trifluoromethyl)cyclopropyl)phenyl) imidazolidine-2,4-dione]",≤ 500
3,"COC(C)CNc1cc(CN2C(=O)N(c3ccc(C4(C(F)(F)F)CC4)cc3)C(=O)C2(C)C)ccn1 (stereo not shown) [Compound 163, 1-((2-((2-methoxypropyl)amino)pyridin-4-yl)methyl)-5,5-dimethyl-3-(4-(1-(trifluoromethyl)cyclopropyl)phenyl) imidazolidine-2,4-dione]",≤ 500
4,"CC1(C)C(=O)N(c2ccc3c(c2)N(S(C)(=O)=O)CC32CC2(C)C)C(=O)N1Cc1ccnc(N[C@H]2[C@@H]3COC[C@@H]32)c1 (stereo partly drawn) [Compound 164, 1-((2-(((1R,5S,6r)-3-oxabicyclo[3.1.0]hexan-6-yl)amino)pyridin-4-yl)methyl)-3-(2,2-dimethyl-1′-(methylsulfonyl)spiro[cyclopropane-1,3′-indolin]-6′-yl)-5,5-dimethylimidazolidine-2,4-dione]",≤ 500

# Now from value to compound:
row,IC50 [nM],SMILES
1,≤ 500,"CCOC[C@H](C)Nc1cc(CN2C(=O)N(c3ccc(C4(C(F)(F)F)CC4)cc3)C(=O)C2(C)C)ccn1 [Compound 157, (S)-1-((2-((1-ethoxypropan-2-yl)amino)pyridin-4-yl)methyl)-5,5-dimethyl-3-(4-(1-(trifluoromethyl)cyclopropyl)phenyl) imidazolidine-2,4-dione]"
2,≤ 500,"COCC1(Nc2cc(CN3C(=O)N(c4ccc(C5(C(F)(F)F)CC5)cc4)C(=O)C3(C)C)ccn2)CC1 [Compound 159, 1-((2-((1-(methoxymethyl)cyclopropyl)amino)pyridin-4-yl)methyl)-5,5-dimethyl-3-(4-(1-(trifluoromethyl)cyclopropyl)phenyl) imidazolidine-2,4-dione]"
3,≤ 500,"CC1(C)C(=O)N(c2ccc(C3(C(F)(F)F)CC3)cc2)C(=O)N1Cc1ccnc(NCC2(C#N)CC2)c1 [Compound 160, 1-(((4-((5,5-dimethyl-2,4-dioxo-3-(4-(1-(trifluoromethyl)cyclopropyl)phenyl)imidazolidin-1-yl)methyl)pyridin-2-yl)amino)methyl)cyclopropane-1-carbonitrile]"
4,≤ 500,"CC(C)(C#N)c1ccc(N2C(=O)N(Cc3ccnc(N[C@H]4[C@@H]5COC[C@@H]54)c3)C(C)(C)C2=O)cc1 [Compound 162, 2-(4-(3-((2-(((1R,5S,6r)-3-oxabicyclo[3.1.0]hexan-6-yl)amino)pyridin-4-yl)methyl)-4,4-dimethyl-2,5-dioxoimidazolidin-1-yl)phenyl)-2-methylpropanenitrile]"
5,≤ 500,"CC(Nc1cc(CN2C(=O)N(c3ccc(C4(C(F)(F)F)CC4)cc3)C(=O)C2(C)C)ccn1)c1cccnc1 (stereo not shown) [Compound 165, 5,5-dimethyl-1-((2-((1-(pyridin-3-yl)ethyl)amino)pyridin-4-yl)methyl)-3-(4-(1-(trifluoromethyl)cyclopropyl)phenyl)imidazolidine-2,4-dione]"
6,500 to 2000,"CC1(C)C(=O)N(c2ccc(C3(C(F)(F)F)CC3)cc2)C(=O)N1Cc1ccnc(NS(C)(=O)=O)c1 [Compound 166, N-(4-((5,5-dimethyl-2,4-dioxo-3-(4-(1-(trifluoromethyl)cyclopropyl)phenyl)imidazolidin-1-yl)methyl)pyridin-2-yl)methanesulfonamide]"
